Measurements from US12077503B2, “Substituted cyclic amides and their use as herbicides” (FMC CORPORATION, priority 2015, dated 2024).

Legend:
Format in all cases: in vivo
[1] = system: ryegrass, Italian (Italian ryegrass, Lolium multiflorum); assay: Test A preemergence
From the text: (§1) Seeds of plant species selected from barnyardgrass (Echinochloa crus-galli), Kochia (Kochia scoparia), ragweed (common ragweed, Ambrosia elatior), ryegrass, Italian (Italian ryegrass, Lolium multiflorum), crabgrass, large (Digitaria sanguinalis), giant foxtail (Setaria faberii), green foxtail (Setaria viridis), morningglory (Ipomoea spp.), pigweed (Amaranthus retroflexus), velvetleaf (Abutilon theophrasti), wheat (Triticum aestivum), and corn (Zea mays) were planted into a blend of loam soil and sand and treated preemergence with a directed soil spray using test chemicals formulated in anon-phytotoxic solvent mixture which included a surfactant.
(§2) At the same time, plants selected from these crop and weed species and also blackgrass (Alopecurus myosuroides), and Galium (catchweed bedstraw, Galium aparine) were planted in pots containing the same blend of loam soil and sand and treated with postemergence applications of test chemicals formulated in the same manner. Plants ranged in height from 2 to 10 cm and were in the one- to two-leaf stage for the postemergence treatment. Treated plants and untreated controls were maintained in a greenhouse for approximately 10 d, after which time all treated plants were compared to untreated controls and visually evaluated for injury. Plant response ratings, summarized in Table A, are based on a 0 to 100 scale where 0 is no effect and 100 is complete control. A dash (-) response means no test result.

[2] = system: barnyardgrass (Echinochloa crus-galli); assay: Test A preemergence
From the text: as §1, §2

Kochia (Kochia scoparia) [3] = assay: Test A preemergence
From the text: as §1, §2

[4] = system: giant foxtail (Setaria faberii); assay: Test A preemergence
From the text: as §1, §2

[5] = system: ragweed (common ragweed, Ambrosia elatior); assay: Test A preemergence
From the text: as §1, §2

[6] = system: pigweed (Amaranthus retroflexus); assay: Test A preemergence
From the text: as §1, §2

[7] = system: blackgrass (Alopecurus myosuroides); assay: Test A postemergence; conditions: postemergence, 0 to 100 scale (0 no effect, 100 complete control)
From the text: as §1, §2

[8] = system: ryegrass, Italian (Italian ryegrass, Lolium multiflorum); assay: Test A postemergence; conditions: postemergence, 0 to 100 scale (0 no effect, 100 complete control)
From the text: as §1, §2

corn (Zea mays) = assay: Test A postemergence; conditions: postemergence, 0 to 100 scale (0 no effect, 100 complete control)
From the text: as §1, §2

[9] = system: barnyardgrass (Echinochloa crus-galli); assay: Test A postemergence; conditions: postemergence, 0 to 100 scale (0 no effect, 100 complete control)
From the text: as §1, §2

Kochia (Kochia scoparia) [10] = assay: Test A postemergence; conditions: postemergence, 0 to 100 scale (0 no effect, 100 complete control)
From the text: as §1, §2

[11] = system: giant foxtail (Setaria faberii); assay: Test A postemergence; conditions: postemergence, 0 to 100 scale (0 no effect, 100 complete control)
From the text: as §1, §2

[12] = system: Galium (catchweed bedstraw, Galium aparine); assay: Test A postemergence; conditions: postemergence, 0 to 100 scale (0 no effect, 100 complete control)
From the text: as §1, §2

[13] = system: ragweed (common ragweed, Ambrosia elatior); assay: Test A postemergence; conditions: postemergence, 0 to 100 scale (0 no effect, 100 complete control)
From the text: as §1, §2

[14] = system: wheat (Triticum aestivum); assay: Test A postemergence; conditions: postemergence, 0 to 100 scale (0 no effect, 100 complete control)
From the text: as §1, §2

[15] = system: pigweed (Amaranthus retroflexus); assay: Test A postemergence; conditions: postemergence, 0 to 100 scale (0 no effect, 100 complete control)
From the text: as §1, §2

[16] = system: ducksalad (Heteranthera limosa); assay: Test B flooded paddy test; conditions: Flood, 0 to 100 scale where 0 is no effect and 100 is complete control, 13 to 15 d
Summary of the method: (§3)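 Visual ratings (0 none to 100 complete control) are relative to untreated plants, taken 13–15 d after treatment in a greenhouse. Test material went straight into floodwater standing 3 cm above the soil, kept constant, on plants at the 2-leaf stage.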

rice (Oryra sativa) = assay: Test B flooded paddy test; conditions: Flood, 0 to 100 scale where 0 is no effect and 100 is complete control, 13 to 15 d
Summary of the method: as §3

[17] = system: sedge, umbrella (small-flower umbrella sedge, Cyperus difformis); assay: Test B flooded paddy test; conditions: Flood, 0 to 100 scale where 0 is no effect and 100 is complete control, 13 to 15 d
Summary of the method: as §3

[18] = system: barnyardgrass (Echinochloa crus-galli); assay: Test B flooded paddy test; conditions: Flood, 0 to 100 scale where 0 is no effect and 100 is complete control, 13 to 15 d
Summary of the method: as §3

[19] = 125 g ai/ha, preemergence, visual rating after approx. 10 d, 0 to 100 scale where 0 is no effect and 100 is complete control
[20] = 500 g ai/ha, preemergence, 0 to 100 scale, 0 = no effect, 100 = complete control
[21] = 125 g ai/ha, visual injury after approximately 10 d
[22] = 500 g ai/ha, visual injury, approx. 10 d
[23] = 125 g ai/ha, Preemergence, visual injury after approximately 10 d, 0 to 100 scale where 0 is no effect and 100 is complete control
[24] = 125 g ai/ha, visual rating after approx. 10 d

Structure (SMILES): O=C1NCC(c2ccc(I)cc2)C1C(=O)Nc1ccc(F)cc1F (racemic) [Compound 701]
- Plant response rating, Ryegrass, Italian [1, 19]: 0
- Plant response rating, Ryegrass, Italian [1, 20]: 0
- Plant response rating, Barnyardgrass [2, 19]: 60
- Plant response rating, Barnyardgrass [2, 20]: 90
- Plant response rating, Kochia (Kochia (Kochia scoparia) [3]; [19]): 0
- Plant response rating, Kochia (Kochia (Kochia scoparia) [3]; [20]): 0
- Plant response rating, Foxtail, Giant [4, 19]: 90
- Plant response rating, Foxtail, Giant [4, 20]: 90
- Plant response rating, Ragweed [5, 19]: 0
- Plant response rating, Ragweed [5, 20]: 0
- Plant response rating, Pigweed [6, 19]: 0
- Plant response rating, Pigweed [6, 20]: 0
- Plant response rating, Blackgrass [7, 21]: 0
- Plant response rating, Blackgrass [7, 22]: 0
- Plant response rating, Ryegrass, Italian [8, 21]: 0
- Plant response rating, Ryegrass, Italian [8, 22]: 0
- Plant response rating, Corn (corn (Zea mays); [21]): 0
- Plant response rating, Corn (corn (Zea mays); [22]): 0
- Plant response rating, Barnyardgrass [9, 21]: 60
- Plant response rating, Barnyardgrass [9, 22]: 70
- Plant response rating, Kochia (Kochia (Kochia scoparia) [10]; [21]): 0
- Plant response rating, Kochia (Kochia (Kochia scoparia) [10]; [22]): 0
- Plant response rating, Foxtail, Giant [11, 21]: 60
- Plant response rating, Foxtail, Giant [11, 22]: 70
- Plant response rating, Galium [12, 21]: 0
- Plant response rating, Galium [12, 22]: 0
- Plant response rating, Ragweed [13, 21]: 0
- Plant response rating, Ragweed [13, 22]: 0
- Plant response rating, Wheat [14, 21]: 0
- Plant response rating, Wheat [14, 22]: 0
- Plant response rating, Pigweed [15, 21]: 0
- Plant response rating, Pigweed [15, 22]: 0
- Plant response rating, Ducksalad ([16]; 500 g ai/ha): 100
- Plant response rating, Rice (rice (Oryra sativa); 500 g ai/ha): 0
- Plant response rating, Sedge, Umbrella ([17]; 500 g ai/ha): 0
- Plant response rating, Barnyardgrass ([18]; 500 g ai/ha): 65

Structure (SMILES): CN1CC(c2cc(F)cc(F)c2)C(C(=O)Nc2ccccc2C(F)(F)F)C1=O (stereo not drawn) [Compound 647]
- Plant response rating, Ryegrass, Italian [1, 23]: 30
- Plant response rating, Ryegrass, Italian [1, 20]: 30
- Plant response rating, Barnyardgrass [2, 23]: 90
- Plant response rating, Barnyardgrass [2, 20]: 90
- Plant response rating, Kochia (Kochia (Kochia scoparia) [3]; [23]): 0
- Plant response rating, Kochia (Kochia (Kochia scoparia) [3]; [20]): 0
- Plant response rating, Foxtail, Giant [4, 23]: 90
- Plant response rating, Foxtail, Giant [4, 20]: 100
- Plant response rating, Ragweed [5, 23]: 0
- Plant response rating, Ragweed [5, 20]: 40
- Plant response rating, Pigweed [6, 23]: 0
- Plant response rating, Pigweed [6, 20]: 60
- Plant response rating, Blackgrass [7, 24]: 20
- Plant response rating, Blackgrass [7, 22]: 60
- Plant response rating, Ryegrass, Italian [8, 24]: 0
- Plant response rating, Ryegrass, Italian [8, 22]: 0
- Plant response rating, Corn (corn (Zea mays); [24]): 10
- Plant response rating, Corn (corn (Zea mays); [22]): 40
- Plant response rating, Barnyardgrass [9, 24]: 80
- Plant response rating, Barnyardgrass [9, 22]: 90
- Plant response rating, Kochia (Kochia (Kochia scoparia) [10]; [24]): 0
- Plant response rating, Kochia (Kochia (Kochia scoparia) [10]; [22]): 20
- Plant response rating, Foxtail, Giant [11, 24]: 90
- Plant response rating, Foxtail, Giant [11, 22]: 90
- Plant response rating, Galium [12, 24]: 20
- Plant response rating, Galium [12, 22]: 50
- Plant response rating, Ragweed [13, 24]: 0
- Plant response rating, Ragweed [13, 22]: 10
- Plant response rating, Wheat [14, 24]: 20
- Plant response rating, Wheat [14, 22]: 50
- Plant response rating, Pigweed [15, 24]: 0
- Plant response rating, Pigweed [15, 22]: 0
- Plant response rating, Ducksalad ([16]; 250 g ai/ha): 90
- Plant response rating, Rice (rice (Oryra sativa); 250 g ai/ha): 40
- Plant response rating, Sedge, Umbrella ([17]; 250 g ai/ha): 0
- Plant response rating, Barnyardgrass ([18]; 250 g ai/ha): 75
